Patent publication US8318674B2, “Local treatment of bone defects” (Kuros Biosurgery AG, priority 2005, dated 2012)

Experiments:
[1] = Stability of PTH or TGPTH in buffer (spiked samples, direct ELISA); format: physicochemical; settings: 0.5 μg/mL, 37° C., distilled water, phosphate buffer saline, tris-buffer saline
Description: For the first release assay, a fibrin matrix of 50 μl with 0.1 mg PTH or TGPTH per ml fibrin matrix was incubated at 37° C. in 10 ml buffer. Therefore, the concentration of PTH or TGPTH in the buffer in case of a total release would be 0.5 μg PTH or TGPTH/mL fibrin matrix. In order to compare the stability of PTH or TGPTH during the assay, samples of PTH or TGPTH were diluted directly in the buffer to a concentration of 0.5 μg PTH or TGPTH/mL fibrin matrix. Different buffers were tested: distilled water, phosphate buffer saline, tris-buffer saline.
Aliquots were taken at days 0, 1, 2, 4 and 6 and analysed by direct ELISA. […] Therefore, no conclusion could be made on the release data. The PTH stability was certainly affected by its low concentration and the buffers that were not optimal.
The release experiment was repeated by using a stabilizing buffer containing 50 mM mannitol in a 10 mM sodium acetate buffer. In addition, the buffer was exchanged every 2 days in order to prevent any degradation of peptide. […] The concentration of PTH or TGPTH in the buffer in case of a total release would be 100 μg/mL fibrin matrix (200 times more than before). […] Samples were collected every 2 to 4 days (with a change of buffer) during 2 weeks and analysed by direct ELISA. […]

[2] = target: T1, parathyroid hormone receptor (Homo sapiens, UniProt Q03431); assay: Reporter gene assay for bioactivity of PTH fusion peptides; format: cell-based; settings: luciferase reporter linked to PTH receptor promoter; equal amounts; compared to international 84 amino acid standard
T1 construct: endogenous in cells; transfected only with a luciferase reporter plasmid driven by the PTH receptor promoter
T1 sequence (Q03431 27-593): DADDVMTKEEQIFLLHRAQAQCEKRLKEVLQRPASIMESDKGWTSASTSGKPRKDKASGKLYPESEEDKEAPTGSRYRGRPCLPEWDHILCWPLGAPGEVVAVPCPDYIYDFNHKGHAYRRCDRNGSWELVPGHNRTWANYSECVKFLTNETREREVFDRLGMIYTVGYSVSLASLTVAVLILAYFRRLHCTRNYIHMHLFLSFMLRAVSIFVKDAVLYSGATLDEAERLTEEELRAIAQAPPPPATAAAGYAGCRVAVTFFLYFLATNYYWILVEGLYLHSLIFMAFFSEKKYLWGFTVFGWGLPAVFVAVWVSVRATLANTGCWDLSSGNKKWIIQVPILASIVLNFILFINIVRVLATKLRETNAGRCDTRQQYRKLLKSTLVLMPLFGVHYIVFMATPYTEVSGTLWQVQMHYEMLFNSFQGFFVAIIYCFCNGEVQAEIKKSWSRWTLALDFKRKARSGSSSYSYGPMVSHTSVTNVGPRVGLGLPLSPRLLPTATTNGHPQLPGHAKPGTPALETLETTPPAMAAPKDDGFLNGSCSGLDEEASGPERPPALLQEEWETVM
Description: Cells transfected with a reporter gene linked to a promoter for a PTH receptor were treated with equal amounts of either PTH1-34, TG-pl-PTH1-34 (described hereinafter) or the international 84 amino acid standard. The inhibition of expression of the luciferase reporter gene was measured and compared to transfected cells that were not exposed to PTH in solution (control).
To study the bioactivity of the PTH fusion peptides, a reporter gene assay was established. In this assay, a plasmid that contains luciferase reporter gene which is linked to the promoter for the parathyroid hormone receptor is transfected into cells. Then, if the cell is exposed to PTH and the PTH subsequently binds to its receptor on the cell, a signal cascade, directed through elevated cAMP levels, is initiated. Through a natural feedback regulation, this then leads to a reduction of PTH receptor levels. As the reduction is directed through the promoter, it also then leads to a decrease in production of the linked reporter gene. Using this assay, the activity of both native PTH1-34 as well as TG-pl-PTH1-34 were studied and compared to an international standard.

Compound	stability in buffer [1]	level of activity (reduction in reporter gene expression) [2]
CC[C@H](C)[C@H](NC(=O)[C@H](CCC(=O)O)NC(=O)[C@H](CO)NC(=O)[C@@H](NC(=O)[C@@H](N)CO)C(C)C)C(=O)N[C@@H](CCC(N)=O)C(=O)N[C@@H](CC(C)C)C(=O)N[C@@H](CCSC)C(=O)N[C@@H](Cc1cnc[nH]1)C(=O)N[C@@H](CC(N)=O)C(=O)N[C@@H](CC(C)C)C(=O)NCC(=O)N[C@@H](CCCCN)C(=O)N[C@@H](Cc1cnc[nH]1)C(=O)N[C@@H](CC(C)C)C(=O)N[C@@H](CC(N)=O)C(=O)N[C@@H](CO)C(=O)N[C@@H](CCSC)C(=O)N[C@@H](CCC(=O)O)C(=O)N[C@@H](CCCN=C(N)N)C(=O)N[C@H](C(=O)N[C@@H](CCC(=O)O)C(=O)N[C@@H](Cc1c[nH]c2ccccc12)C(=O)N[C@@H](CC(C)C)C(=O)N[C@@H](CCCN=C(N)N)C(=O)N[C@@H](CCCCN)C(=O)N[C@@H](CCCCN)C(=O)N[C@@H](CC(C)C)C(=O)N[C@@H](CCC(N)=O)C(=O)N[C@@H](CC(=O)O)C(=O)N[C@H](C(=O)N[C@@H](Cc1cnc[nH]1)C(=O)N[C@@H](CC(N)=O)C(=O)N[C@@H](Cc1ccccc1)C(=O)O)C(C)C)C(C)C [PTH1-34]	≤ 2 days	–
NQEQVSPLYKNRSVSEIQLMHNLGKHLNSMERVEWLRKKLQDVHNF [TG-pl-PTH1-34]	–	the same as for the international standard
